One assay deals with T1, PDK1_50-359 (Homo sapiens, UniProt O15530).
T1 construct: His (N); made in house; host or cells: insect cells (stated for the crystallography batch)
T1 sequence (O15530 50-359): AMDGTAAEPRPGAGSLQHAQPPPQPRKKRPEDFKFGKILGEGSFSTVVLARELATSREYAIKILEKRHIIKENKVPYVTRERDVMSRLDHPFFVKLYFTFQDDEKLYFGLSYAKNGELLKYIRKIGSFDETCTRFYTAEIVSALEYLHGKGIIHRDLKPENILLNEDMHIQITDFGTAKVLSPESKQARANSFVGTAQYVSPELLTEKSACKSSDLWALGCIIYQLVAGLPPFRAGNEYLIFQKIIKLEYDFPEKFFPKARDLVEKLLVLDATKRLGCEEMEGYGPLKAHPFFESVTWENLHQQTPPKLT
Briefly: Differential scanning fluorimetry, thermal stability of PDK1_50-359 (catalytic domain). It is filed as binding. As to the method: The thermal stability of PDK1 was assessed by monitoring the unfolding of PDK1 by the increase in the fluorescence of SYPRO Orange (Invitrogen) using a real-time PCR device (StepOnePlus, Applied Biosystems and BioRad CFX96) following a previously described protocol ([70]). The reactions were performed in a final volume of 10 μl in white 96-well PCR microtiter plates (Greiner) and contained 1 μM PDK1, 10 mM HEPES (pH 7.5), 150 mM NaCl, 1/1000 SYPRO Orange and 1 mM dithiothreitol. For valsartan, the assay buffer was modified to exclude NaCl. PIFtide or compounds (at a final DMSO concentration of 1%) were added to this reaction mixture. The temperature gradient was performed in steps of 0.3 °C in the range from 25 to 70 °C. To calculate the Tm values, data were exported to GraphPad Prism and curves fitted to a Boltzmann sigmoidal equation with an acceptable confidence interval of 95%. Statistical analysis was performed with Infostat software (http://www.infostat.com.ar) and GraphPad Prism by first verifying a normal distribution of pooled residuals (Shapiro-Wilks test) and homogeneity of variance (F test), and then performing a one-way ANOVA followed by the post hoc comparisons test indicated in each figure legend.

The next assay has as its target T2, PDK1 (Homo sapiens, UniProt O15530).
T2 sequence (O15530 1-556): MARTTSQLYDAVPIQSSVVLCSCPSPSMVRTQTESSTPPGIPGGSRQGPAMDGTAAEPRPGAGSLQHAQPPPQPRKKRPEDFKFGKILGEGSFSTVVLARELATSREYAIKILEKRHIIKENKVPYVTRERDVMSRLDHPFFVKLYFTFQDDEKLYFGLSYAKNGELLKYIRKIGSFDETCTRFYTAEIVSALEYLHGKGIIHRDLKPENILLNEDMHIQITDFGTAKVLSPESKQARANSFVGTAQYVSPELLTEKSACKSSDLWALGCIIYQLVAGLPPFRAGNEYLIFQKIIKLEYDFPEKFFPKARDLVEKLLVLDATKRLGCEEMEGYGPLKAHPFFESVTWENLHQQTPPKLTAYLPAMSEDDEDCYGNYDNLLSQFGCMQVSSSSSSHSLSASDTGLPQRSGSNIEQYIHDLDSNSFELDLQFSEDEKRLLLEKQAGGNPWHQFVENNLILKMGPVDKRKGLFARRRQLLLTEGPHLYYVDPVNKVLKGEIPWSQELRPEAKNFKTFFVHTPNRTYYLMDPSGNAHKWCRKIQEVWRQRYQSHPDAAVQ
Briefly: PDK1 activity assay with T308tide and [γ32P]ATP. It is filed as biochemical. Particulars: full-length PDK1. Details: made in house; host or cells: HEK293 (GST fusion) or Sf9 insect cells (His form). The method, then: The PDK1 activity assay using T308tide as a substrate was performed essentially as previously described ([18], [28], [54]). In brief, the assay was performed in a 20 μl format containing 50 mM Tris pH 7.5, 0.05 mg/ml BSA, 0.1% ß-mercaptoethanol, 10 mM MgCl2, 100 μM [γ^32P]ATP (5-50 cpm/pmol), 0.003% Brij, 150-500 ng PDK1, and T308tide (0.3 mM) at room temperature. The assay was performed in 96 well plated and stopped by the addition of 5 μl of 0.1 % phosphoric acid. 4 μl aliquots were spotted on p81 phosphocellulose papers (Whatmann) using ep motion 5070 (Eppendorf). The phosphocellulose papers were washed in 0.01% phosphoric acid, dried, and exposed using PhosphoImager (FLA-9000 Starion). Data were analyzed with ImageQuant software (Fujifilm). Activity measurements were performed in technical duplicates or triplicates with less than 10% difference between replicates. Experiments were repeated at least twice. The activity measurements of PDK1 towards GS-022 and GS-023 were performed similarly, with the GS-peptides replacing T308tide at the indicated concentrations. GS-022 and GS-023 have features consistent with the loose characteristics disclosed for the peptide Ser/Thr 07, ((R/K)1-3(X)0-2 (S/T) (X)0-2(R/K)1-3, where X is any residue) used by the commercial “PDK1 Direct” assay.

Assay [1] has as its target T3, full-length PDK1 (GST-PDK1_1-556) (Homo sapiens, UniProt O15530).
T3 construct: made in house; host or cells: HEK293 cells (transient transfection of pEBG2T)
T3 sequence (O15530 1-556): T2 sequence (O15530 1-556)
Briefly: Lipid overlay assay, di-C18-PIP3, full-length PDK1. It is filed as binding. The method, then: Dots containing 2-1000 picomoles of di-C18-PIP3 ([70]) were prepared by spotting 1 μL of serial dilution stock solutions (2-1000 μM dissolved in a 1:2:0.8 by volume mixture of chloroform/methanol/water) onto Hybond-C extra membrane (GE Healthcare), which were dried at room temperature. Membranes were incubated with blocking buffer (50 mm Tris-HCl buffer pH 7.5, 2 mg/ml fatty acid free bovine serum albumin, 150 mM NaCl, and 0.1% (v/v) Tween 20) for 1 h at room temperature. Membranes were then incubated with 10 nM protein/10 μM inhibitor mixes in blocking buffer with gentle rocking overnight at 4 °C. Membranes were washed 10 times over 1 h at room temperature using TBST buffer (50 mM Tris-HCl pH 7.5, 150 mM NaCl, 0.1% (v/v) Tween 20) before being incubated for 1 h with 1:2000 dilution of rabbit recombinant anti-PDK1 monoclonal antibody (New England Biolabs). Membranes were washed and incubated with 1:2000 dilution of anti-rabbit HRP conjugated antibody (Invitrogen/Thermo Fisher) for 1 h at room temperature. Finally, after washing, proteins bound to the membranes were detected using Novex ECL chemiluminescent reagent (Invitrogen/Thermo Fisher) and developed on X-ray film.

Take `O=C(O[C@H]1[C@@H](OP(=O)(O)O)[C@H](OP(=O)(O)O)[C@@H](OP(=O)(O)O)[C@H](OP(=O)(O)O)[C@H]1OP(=O)(O)O)c1ccccc1` [HYG8, 2-O-benzoyl-IP5]: the “effect on thermal stability of PDK1_50-359 (catalytic domain)” value on PDK1_50-359 is “without affecting”. The “effect on activity of full-length PDK1 toward T308tide” value on PDK1 was “partially inhibited”.

As for `CCCCO[C@H]1[C@@H](OP(=O)(O)O)[C@H](OP(=O)(O)O)[C@@H](OP(=O)(O)O)[C@H](OP(=O)(O)O)[C@H]1OP(=O)(O)O` [HYG14, 2-O-butyl-IP5], in assay [1], the “displacement of the interaction between PIP3 and full-length PDK1_1-556” value was “much more potent”.

(Values after paper PMC7614687, “Modulation of the substrate specificity of the kinase PDK1 by distinct conformations of the full-length protein*” (Science signaling, 2023).)
